The numbers were not newly measured in paper PMC3945118 (Journal of molecular neuroscience : MN, 2013), which cites them from elsewhere.

The series has as its system rotarod performance. The settings on record: test not specified; no reference given.

In the case of `CCCC(CCC)C(=O)O` [valproic acid], the “Therapeutic Index (TI) of known anticonvulsant” value was roughly 1.
